Measurements reported in US11464780B2, “Pyrazolopyrimidine derivative and use thereof” (Simcere Pharmaceutical Co. Ltd., priority 2018, dated 2022).
Like-named read-outs stand apart in the source and are kept apart here.

How the values were obtained:
[1] = In vivo pharmacokinetic test in mice; parameters: species or system male CD-1 mice; settings: for Vd / AUC(0-t) / half-life / bioavailability / Cmax / Tmax: male, CD-1, mouse, plasma; for Vd: read-out: Apparent volume of distribution Vd; for AUC(0-t): read-out: Area under the curve AUC0-last; for half-life: read-out: Half life T1/2 (converted); for bioavailability: PO dose of 10 mL/kg vs IV 3 mg/kg, read-out: Bioavailability F %; for Cmax: read-out: Peak concentration Cmax; for Tmax: read-out: Time of peak concentration Tmax
Protocol: Experimental object: male CD-1 mice aged 7-9 weeks were used as the experimental animals, the LC/MS/MS method was used to determine the drug concentrations in plasma at different time points after single intravenous (IV) and intragastric (PO) administration of the compounds, in vivo pharmacokinetic behaviors of the compounds of the present disclosure in mice were studied, and pharmacokinetic characteristics thereof were evaluated. Drug preparation: The compounds were prepared into clear solutions with 5% DMSO+10% solutol+85% water as solvent for administration in IV (intravenous) group and PO (intragastric). The dose of the compounds: IV dose of 3 mg/kg, and PO dose of […].

[2] = biological target: T1, ALK (Homo sapiens, UniProt Q9UM73); test: Kinase inhibitory activity (33P-ATP filter binding, Reaction Biology Corp.); assay type: biochemical; settings: read-out: The half maximal inhibitory concentration IC50 on the kinases, ALK
T1 construct: purchased Reaction Biology Corp. (contract assay)
Protocol: The inhibitory activities of the compounds on TrkA, TrkC, ALK, Ros1 and other kinases were determined by Reaction Biology Corp. To reaction buffer (20 mM Hepes (pH 7.5), 10 mM MgCl2, 1 mM EGTA, 0.02% Brij35, 0.02 mg/mL BSA, 0.1 mM Na3VO4, 2 mM DTT, 1% DMSO) were sequentially added a certain concentration of substrate, coenzyme factor, kinase and test compound (10 concentrations, 3-fold serial dilutions, DMSO at a final concentration of […]), and the mixture was mixed evenly. The mixture was incubated at room temperature for 20 minutes. To the reaction mixture was added a certain concentration of ^33P-ATP to initiate the reaction, and then the mixture was incubated at room temperature for 120 minutes. The radioactivities of the reactants were determined by the method of filter binding. The final kinase activity was expressed as the ratio of the remaining kinase activity in the test sample to the kinase activity in the DMSO control group. The dose-effect curve was fitted by GraphPad software and the IC50 was calculated.

[3] = biological target: T2, Ba/F3 SLC34A2-ROS1-G2032R stably transfected cell line (Homo sapiens, UniProt P08922, G2032R, cells depend on it); test: Cell proliferation inhibition (CellTiter-Glo); assay type: cell-based; settings: 72 hours, read-out: The half maximal inhibitory concentration IC50 against cells, Ba/F3 SLC34A2-ROS1-G2032R
T2 construct: fused on or other part: O95436 (Sodium-dependent phosphate transport protein 2B)

[4] = biological target: T3, BaF3 ETV6-NTRK3-G623R stably transfected cell line (Homo sapiens, UniProt Q16288, G623R, cells depend on it); test: Cell proliferation inhibition (CellTiter-Glo); assay type: cell-based; settings: 72 hours, read-out: The half maximal inhibitory concentration IC50 against cells, BaF3 ETV6-NTRK3-G623R
T3 construct: fused on or other part: P41212 (Transcription factor ETV6)

[5] = biological target: T4, Ba/F3 SLC34A2-ROS1-WT stably transfected cell line (Homo sapiens, UniProt P08922); test: Cell proliferation inhibition (CellTiter-Glo); assay type: cell-based; settings: 72 hours, read-out: The half maximal inhibitory concentration IC50 against cells, Ba/F3 SLC34A2-ROS1-WT
T4 construct: fused on or other part: O95436 (Sodium-dependent phosphate transport protein 2B)

[6] = biological target: T5, Ba/F3 LMNA-NTRK1-WT stably transfected cell line (Homo sapiens, UniProt P04629); test: Cell proliferation inhibition (CellTiter-Glo); assay type: cell-based; settings: 72 hours, read-out: The half maximal inhibitory concentration IC50 against cells, Ba/F3 LMNA-NTRK1-WT
T5 construct: fused on or other part: P02545 (Prelamin-A/C)
Protocol: Adenosine Tri-Phosphate (ATP) is an energy carrier shared by various life activities in nature, and is the smallest unit of energy storage and transfer. The CellTiter-Glo™ cell viability detection kit uses luciferase as the detection substance, and luciferase requires the participation of ATP during the process of luminescence. CellTiter-Glo™ reagent is added to cell culture medium, and the luminescent intensity is measured. The luminescent signal is directly proportional to the amount of ATP in the system, and ATP is positively related to the number of living cells. Therefore, by using the CellTiter-Glo kit to detect ATP content, cell proliferation can be detected. In this assay, the cell line is Ba/F3 LMNA-NTRK1-WT stably transfected cell line, with 5000 cells/well.
IC50 Determination Process:
1. Cell Culture and Inoculation
a) the cells in the logarithmic growth phase were harvested, and counted with a platelet counter. Trypan blue exclusion method was used to detect cell viability to ensure the cell viability was no less than 90%.
b) the cell concentration was adjusted; 90 μL of cell suspension was added respectively into a 96-well plate.
c) the cells in the 96-well plates was cultured under conditions of 37° C., 5% CO2 and 95% humidity overnight.
2. Drug Dilution and Administration
a) 10-fold drug solutions were prepared, the highest concentration was 10 μM, 9 concentrations, 3-fold diluted (refer to Appendix I). 10 μL of each drug solution was added to each well of the 96-well plate seeded with the cells in triplicate.
b) the cells in the 96-well plate added with the drug were cultured under conditions of 37° C., 5% CO2 and 95% humidity for 72 hours, and then CTG (cell proliferation) was performed.
a) CellTiter-Glo™ reagent was thawed, and the cell plate was equilibrated at room temperature for 30 minutes.
b) CellTiter-Glo™ reagent of a same volume was added to each well;
c) the cell plate was shaken on an orbital shaker for 5 minutes to lyse the cells.
d) the cell plate was placed at room temperature for 20 minutes to stabilize the luminescent signal.
e) the luminescent intensity was read.
GraphPad Prism 5.0 software was used to analyze the data, nonlinear S-curve regression was used to fit the data to obtain dose-effect curve, and IC50 value was calculated therefrom.

[7] = biological target: T6, Ros1 (Homo sapiens, UniProt P08922); test: Kinase inhibitory activity (33P-ATP filter binding, Reaction Biology Corp.); assay type: biochemical; settings: read-out: The half maximal inhibitory concentration IC50 on the kinases, Ros1
T6 construct: purchased Reaction Biology Corp. (contract assay)
Protocol: (§1) The mixture was incubated at room temperature for 20 minutes. To the reaction mixture was added a certain concentration of ^33P-ATP to initiate the reaction, and then the mixture was incubated at room temperature for 120 minutes. The radioactivities of the reactants were determined by the method of filter binding. The final kinase activity was expressed as the ratio of the remaining kinase activity in the test sample to the kinase activity in the DMSO control group. The dose-effect curve was fitted by GraphPad software and the IC50 was calculated.

[8] = biological target: T7, Ros-G2032R (Homo sapiens, UniProt P08922, G2032R); test: as above; assay type: biochemical; settings: read-out: The half maximal inhibitory concentration IC50 on the kinases, Ros-G2032R
T7 construct: purchased Reaction Biology Corp. (contract assay)
Protocol: as §1

[9] = biological target: T8, TrkC (Homo sapiens, UniProt Q16288); test: as above; assay type: biochemical; settings: read-out: The half maximal inhibitory concentration IC50 on the kinases, TrkC
T8 construct: purchased Reaction Biology Corp. (contract assay)
Protocol: as §1

[10] = biological target: T9, TrkA-G667C (Homo sapiens, UniProt P04629, G667C); test: as above; assay type: biochemical; settings: read-out: The half maximal inhibitory concentration IC50 on the kinases, TrkA-G667C
T9 construct: purchased Reaction Biology Corp. (contract assay)
Protocol: as §1

[11] = biological target: T10, TrkA-G595R (Homo sapiens, UniProt P04629, G595R); test: as above; assay type: biochemical; settings: read-out: The half maximal inhibitory concentration IC50 on the kinases, TrkA-G595R
T10 construct: purchased Reaction Biology Corp. (contract assay)
Protocol: as §1

[12] = biological target: T11, TrkA (Homo sapiens, UniProt P04629); test: as above; assay type: biochemical; settings: read-out: The half maximal inhibitory concentration IC50 on the kinases, TrkA
T11 construct: purchased Reaction Biology Corp. (contract assay)
Protocol: as §1

[13] = biological target: T12, Ba/F3 LMNA-NTRK1-G595R stably transfected cell line (Homo sapiens, UniProt P04629, G595R, cells depend on it); test: Cell proliferation inhibition (CellTiter-Glo); assay type: cell-based; settings: 72 hours, read-out: The half maximal inhibitory concentration IC50 against cells, Ba/F3 LMNA-NTRK1-G595R
T12 construct: fused on or other part: P02545 (Prelamin-A/C)

[14] = biological target: T13, Ba/F3 LMNA-NTRK1-F589L stably transfected cell line (Homo sapiens, UniProt P04629, F589L, cells depend on it); test: Cell proliferation inhibition (CellTiter-Glo); assay type: cell-based; settings: 72 hours, read-out: The half maximal inhibitory concentration IC50 against cells, Ba/F3 LMNA-NTRK1-F589L
T13 construct: fused on or other part: P02545 (Prelamin-A/C)
T13 sequence (P04629 whole entry F589L, the tested form may be a part): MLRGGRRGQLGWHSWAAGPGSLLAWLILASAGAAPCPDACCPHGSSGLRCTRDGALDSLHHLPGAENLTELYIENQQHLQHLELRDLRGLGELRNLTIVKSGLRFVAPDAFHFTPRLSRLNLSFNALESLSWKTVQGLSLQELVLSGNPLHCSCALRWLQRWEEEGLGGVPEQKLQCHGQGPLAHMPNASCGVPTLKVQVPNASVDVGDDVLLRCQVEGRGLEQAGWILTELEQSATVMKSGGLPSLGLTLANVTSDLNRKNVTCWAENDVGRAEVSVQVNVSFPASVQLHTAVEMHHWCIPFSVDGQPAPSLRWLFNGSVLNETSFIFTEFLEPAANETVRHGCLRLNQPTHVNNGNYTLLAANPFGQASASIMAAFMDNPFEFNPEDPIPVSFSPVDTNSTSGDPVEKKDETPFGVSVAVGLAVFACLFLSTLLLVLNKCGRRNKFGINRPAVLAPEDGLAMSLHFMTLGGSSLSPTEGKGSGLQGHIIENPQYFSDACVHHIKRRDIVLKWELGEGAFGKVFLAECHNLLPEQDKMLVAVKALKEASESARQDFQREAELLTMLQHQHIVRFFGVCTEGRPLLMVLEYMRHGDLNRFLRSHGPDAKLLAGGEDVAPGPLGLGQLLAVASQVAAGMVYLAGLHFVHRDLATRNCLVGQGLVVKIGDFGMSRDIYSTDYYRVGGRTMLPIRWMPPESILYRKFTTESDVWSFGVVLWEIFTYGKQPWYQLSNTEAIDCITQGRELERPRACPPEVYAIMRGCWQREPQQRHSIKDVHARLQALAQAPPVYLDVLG

T11 sequence (P04629 33-796): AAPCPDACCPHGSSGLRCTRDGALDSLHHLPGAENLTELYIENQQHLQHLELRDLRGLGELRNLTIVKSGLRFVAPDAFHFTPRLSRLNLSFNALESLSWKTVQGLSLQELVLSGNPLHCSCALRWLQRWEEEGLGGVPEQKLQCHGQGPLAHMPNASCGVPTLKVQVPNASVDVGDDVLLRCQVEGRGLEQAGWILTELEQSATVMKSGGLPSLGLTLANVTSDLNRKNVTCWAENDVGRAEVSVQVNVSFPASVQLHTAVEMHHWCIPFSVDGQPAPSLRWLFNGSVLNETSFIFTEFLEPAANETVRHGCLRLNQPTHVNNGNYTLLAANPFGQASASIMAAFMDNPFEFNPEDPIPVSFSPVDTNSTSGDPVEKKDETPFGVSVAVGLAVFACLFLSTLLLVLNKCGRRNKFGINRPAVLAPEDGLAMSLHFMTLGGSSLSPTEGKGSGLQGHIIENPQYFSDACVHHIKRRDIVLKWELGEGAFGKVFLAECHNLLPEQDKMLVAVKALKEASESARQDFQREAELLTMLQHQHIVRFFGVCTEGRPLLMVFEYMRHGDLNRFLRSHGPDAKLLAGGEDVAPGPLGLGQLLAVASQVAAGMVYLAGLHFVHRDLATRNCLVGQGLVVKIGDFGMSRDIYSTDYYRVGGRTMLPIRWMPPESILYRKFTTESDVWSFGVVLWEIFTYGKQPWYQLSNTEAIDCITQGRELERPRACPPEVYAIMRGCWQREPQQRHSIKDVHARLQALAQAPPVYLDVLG
T5 sequence (P04629 whole entry, stated change not applied, the tested form may be a part): as the sequence (P04629 whole entry F589L, the tested form may be a part) above, with L589F counted along it
T4 sequence (P08922 whole entry, stated change not applied, the tested form may be a part): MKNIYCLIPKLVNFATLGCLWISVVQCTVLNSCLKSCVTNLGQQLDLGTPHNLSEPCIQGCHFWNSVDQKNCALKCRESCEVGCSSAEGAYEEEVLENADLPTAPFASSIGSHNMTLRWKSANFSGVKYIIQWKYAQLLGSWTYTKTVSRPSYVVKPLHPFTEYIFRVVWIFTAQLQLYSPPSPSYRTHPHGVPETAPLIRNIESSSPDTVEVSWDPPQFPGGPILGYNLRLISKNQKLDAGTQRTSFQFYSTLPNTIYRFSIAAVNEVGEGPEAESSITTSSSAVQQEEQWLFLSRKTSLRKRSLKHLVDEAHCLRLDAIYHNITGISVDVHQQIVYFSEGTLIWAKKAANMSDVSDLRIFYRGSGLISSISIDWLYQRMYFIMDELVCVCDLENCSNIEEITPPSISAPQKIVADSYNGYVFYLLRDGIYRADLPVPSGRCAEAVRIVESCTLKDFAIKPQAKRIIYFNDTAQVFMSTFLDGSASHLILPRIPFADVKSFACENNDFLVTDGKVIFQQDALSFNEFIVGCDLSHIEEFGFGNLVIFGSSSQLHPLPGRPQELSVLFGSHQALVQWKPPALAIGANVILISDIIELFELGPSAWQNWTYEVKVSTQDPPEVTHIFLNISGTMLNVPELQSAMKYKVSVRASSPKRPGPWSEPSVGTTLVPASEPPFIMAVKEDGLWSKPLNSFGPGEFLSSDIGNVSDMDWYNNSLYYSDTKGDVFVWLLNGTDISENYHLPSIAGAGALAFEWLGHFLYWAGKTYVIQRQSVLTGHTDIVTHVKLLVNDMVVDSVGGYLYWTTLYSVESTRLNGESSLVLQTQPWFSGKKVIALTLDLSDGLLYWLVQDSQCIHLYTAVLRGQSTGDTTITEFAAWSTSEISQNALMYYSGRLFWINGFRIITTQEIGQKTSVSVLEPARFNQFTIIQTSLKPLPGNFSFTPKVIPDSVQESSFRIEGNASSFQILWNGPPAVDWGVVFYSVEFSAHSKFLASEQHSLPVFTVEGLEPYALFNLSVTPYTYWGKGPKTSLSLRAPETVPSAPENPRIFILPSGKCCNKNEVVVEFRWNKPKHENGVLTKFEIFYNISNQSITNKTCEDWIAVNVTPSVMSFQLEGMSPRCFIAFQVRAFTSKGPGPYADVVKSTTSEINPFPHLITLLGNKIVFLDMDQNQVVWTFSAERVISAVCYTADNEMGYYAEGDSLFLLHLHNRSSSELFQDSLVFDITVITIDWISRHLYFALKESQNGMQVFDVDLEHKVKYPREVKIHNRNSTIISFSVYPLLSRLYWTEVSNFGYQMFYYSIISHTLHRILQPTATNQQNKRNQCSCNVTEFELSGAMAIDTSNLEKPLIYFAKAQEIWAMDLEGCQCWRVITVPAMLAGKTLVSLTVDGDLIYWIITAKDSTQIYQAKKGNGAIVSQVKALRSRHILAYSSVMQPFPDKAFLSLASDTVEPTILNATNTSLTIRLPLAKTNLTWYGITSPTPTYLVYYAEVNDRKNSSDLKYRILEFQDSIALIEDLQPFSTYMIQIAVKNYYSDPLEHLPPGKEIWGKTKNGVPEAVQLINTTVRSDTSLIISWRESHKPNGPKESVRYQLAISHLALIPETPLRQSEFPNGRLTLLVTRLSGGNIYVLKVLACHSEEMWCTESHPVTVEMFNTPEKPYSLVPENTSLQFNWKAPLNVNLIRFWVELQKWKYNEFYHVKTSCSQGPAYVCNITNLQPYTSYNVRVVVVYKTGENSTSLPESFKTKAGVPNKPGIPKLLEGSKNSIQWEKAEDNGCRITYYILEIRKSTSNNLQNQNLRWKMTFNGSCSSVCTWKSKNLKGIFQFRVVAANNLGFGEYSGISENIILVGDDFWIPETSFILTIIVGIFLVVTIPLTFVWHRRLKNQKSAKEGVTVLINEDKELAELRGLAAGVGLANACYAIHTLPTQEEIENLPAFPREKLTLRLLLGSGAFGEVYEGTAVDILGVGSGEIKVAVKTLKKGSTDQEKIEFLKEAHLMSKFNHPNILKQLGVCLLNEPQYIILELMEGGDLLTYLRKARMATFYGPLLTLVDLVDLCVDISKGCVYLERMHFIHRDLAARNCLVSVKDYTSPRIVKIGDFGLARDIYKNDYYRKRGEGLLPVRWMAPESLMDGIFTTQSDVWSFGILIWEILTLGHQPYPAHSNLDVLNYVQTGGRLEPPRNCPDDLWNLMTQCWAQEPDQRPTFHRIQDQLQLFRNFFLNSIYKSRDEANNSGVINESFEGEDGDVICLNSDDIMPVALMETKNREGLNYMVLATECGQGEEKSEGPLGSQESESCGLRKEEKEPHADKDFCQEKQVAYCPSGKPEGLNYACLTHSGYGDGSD
T12 sequence (P04629 whole entry G595R, the tested form may be a part): as the sequence (P04629 whole entry F589L, the tested form may be a part) above, with L589F, G595R counted along it
T3 sequence (Q16288 whole entry G623R, the tested form may be a part): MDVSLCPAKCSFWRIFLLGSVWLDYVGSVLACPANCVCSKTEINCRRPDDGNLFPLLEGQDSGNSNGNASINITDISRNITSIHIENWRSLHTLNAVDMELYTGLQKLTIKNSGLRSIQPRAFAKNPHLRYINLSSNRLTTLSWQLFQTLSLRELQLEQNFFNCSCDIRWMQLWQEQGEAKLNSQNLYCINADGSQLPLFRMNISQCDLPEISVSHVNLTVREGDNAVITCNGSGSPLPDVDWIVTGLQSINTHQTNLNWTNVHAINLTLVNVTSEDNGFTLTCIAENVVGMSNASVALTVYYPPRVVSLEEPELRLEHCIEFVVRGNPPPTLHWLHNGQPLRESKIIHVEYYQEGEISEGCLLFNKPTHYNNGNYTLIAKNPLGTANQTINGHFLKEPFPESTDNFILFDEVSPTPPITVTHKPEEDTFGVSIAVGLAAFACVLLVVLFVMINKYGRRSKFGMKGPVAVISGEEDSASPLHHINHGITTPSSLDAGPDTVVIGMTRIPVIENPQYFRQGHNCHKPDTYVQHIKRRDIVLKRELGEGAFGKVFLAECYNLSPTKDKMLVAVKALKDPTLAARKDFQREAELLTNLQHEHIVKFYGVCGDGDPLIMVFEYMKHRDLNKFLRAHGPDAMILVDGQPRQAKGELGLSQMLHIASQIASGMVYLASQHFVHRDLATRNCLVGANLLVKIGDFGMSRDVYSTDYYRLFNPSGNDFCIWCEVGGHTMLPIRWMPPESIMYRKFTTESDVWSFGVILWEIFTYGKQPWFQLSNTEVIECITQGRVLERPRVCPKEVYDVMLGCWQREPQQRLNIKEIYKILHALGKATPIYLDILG
T2 sequence (P08922 whole entry G2032R, the tested form may be a part): as the sequence (P08922 whole entry, stated change not applied, the tested form may be a part) above, with G2032R counted along it
T9 sequence (P04629 33-796 G667C): as the sequence (P04629 33-796) above, with G635C counted along it
T10 sequence (P04629 33-796 G595R): as the sequence (P04629 33-796) above, with G563R counted along it

| SMILES | Apparent clearance Cl ([1]; IV dose of 3 mg/kg) [mL/min/kg] | Vd ([1]; IV dose of 3 mg/kg) [L/kg] | AUC(0-t) ([1]; IV dose of 3 mg/kg) [µM·h] | half-life ([1]; IV dose of 3 mg/kg) [min] | bioavailability [1] [%] | AUC(0-t) ([1]; PO dose of 10 mL/kg) [µM·h] | Cmax ([1]; PO dose of 10 mL/kg) [µM] | Tmax ([1]; PO dose of 10 mL/kg) [min] | IC50 [2] [nM] | GI50 [3] [nM] | GI50 [4] [nM] | GI50 [5] [nM] | GI50 [6] [nM] | IC50 [7] [nM] | IC50 [8] [nM] | IC50 [9] [nM] | IC50 [10] [nM] | IC50 [11] [nM] | IC50 [12] [nM] | GI50 [13] [nM] | also measured |
| --- | --- | --- | --- | --- | --- | --- | --- | --- | --- | --- | --- | --- | --- | --- | --- | --- | --- | --- | --- | --- | --- |
| C[C@H]1CNC(=O)c2cnn3ccc(nc23)N2OCC[C@@H]2c2cc(F)cnc2O1 [WX005B] | 12.4 | 0.44 | 10.5 | 30 | 85 | 29.4 | 17.2 | 22.8 | 19.4 | 259 | 5.6 | 17.9 | 5.73 | 0.35 | 2.65 | 0.09 | 26.4 | 10.7 | 13.1 | 9.1 |  |
| O=C1N[C@@H]2CCC[C@@H]2Oc2ncc(F)cc2[C@H]2CCON2c2ccn3ncc1c3n2 [WX007A] | 5.50 | 0.47 | 22.1 | 52.8 | 76 | 54.9 | 22.6 | 22.8 | 11.6 | 165 | 69.1 | 10.1 | 5.8 | 0.13 | 0.73 | 0.05 | 2.85 | 5.18 | 2.8 | 12.4 |  |
| O=C1N[C@@H]2COCC[C@@H]2Oc2ncc(F)cc2[C@H]2CCON2c2ccn3ncc1c3n2 [WX010B] | 8.4 | 0.68 | 14 | 55.2 | 107 | 49.2 | 13 | 30 |  | 58.1 | 19.5 | 10.4 | 5.8 |  | 0.61 |  |  |  | 3.1 | 20.9 | GI50 [14]: 4.26 nM |
